The test system of this assay is B6C3F1 mice, ip Sarcoma M5076, median survival T/C. Nature of the assay: NCI In Vivo Anticancer Drug Screen. Data for tumor model Sarcoma M5076 (intraperitoneal) in B6C3F1 mice. Particulars: endpoint: median survival time, higher = longer survival. The essentials:
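Tumour cells were transplanted into mice, compound or vehicle was given, survival of both groups was followed, and the treated figure was expressed over the control figure.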

Setting [1] is: dose: 50.0 mg/kg/injection, schedule: Q04DX004 (ip), vehicle: saline with Tween-80.
Where [2] appears, read: dose: 100.0 mg/kg/injection, schedule: Q04DX004 (ip), vehicle: saline with Tween-80.
[3] abbreviates: dose: 200.0 mg/kg/injection, schedule: Q04DX004 (ip), vehicle: saline with Tween-80.

Each structure is given as a SMILES string. “And” between values parts separate entries of the source, which are not always exact repeats. Equal values may be shown once. Toxic doses and inconclusive results are not listed.

Turning to `CCC(/C=C/C1OC(=O)C=CC1C)=C\C(C)C/C=C/C(C)=C/C(C)C(=O)C(C)C(O)C(C)C/C(C)=C/C(=O)O` (centres undefined), the T/C is 104 % of control (dose: 25.0 micrograms/kg/injection, schedule: Q04DX004 (ip), vehicle: other); 162 % of control (dose: 25.0 micrograms/kg/injection, schedule: Q04DX004 (ip), vehicle: saline + alcohol); 110 % of control and 111 % of control (dose: 25.0 micrograms/kg/injection, schedule: Q04DX004 (ip), vehicle: saline); 101 % of control (dose: 25.0 micrograms/kg/injection, schedule: Q04DX004 (iv), vehicle: saline); 114 % of control (dose: 50.0 micrograms/kg/injection, schedule: Q04DX004 (ip), vehicle: other); 163 % of control and 175 % of control (dose: 50.0 micrograms/kg/injection, schedule: Q04DX004 (ip), vehicle: saline + alcohol). The T/C reads like this: (dose: 50.0 micrograms/kg/injection, schedule: Q04DX004 (ip), vehicle: saline) 109 % of control and 114 % of control; (dose: 50.0 micrograms/kg/injection, schedule: Q04DX004 (iv), vehicle: saline) 104 % of control; (dose: 100.0 micrograms/kg/injection, schedule: Q04DX004 (ip), vehicle: other) 121 % of control; (dose: 100.0 micrograms/kg/injection, schedule: Q04DX004 (ip), vehicle: saline + alcohol) 166 % of control and 188 % of control; (dose: 100.0 micrograms/kg/injection, schedule: Q04DX004 (ip), vehicle: saline) 124 % of control; (dose: 100.0 micrograms/kg/injection, schedule: Q04DX004 (iv), vehicle: saline) 110 % of control. The T/C is 106 % of control (dose: 100.0 micrograms/kg/injection, schedule: Q04DX004 (sc), vehicle: other); 121 % of control (dose: 200.0 micrograms/kg/injection, schedule: Q04DX004 (ip), vehicle: other); 184 % of control and 195 % of control (dose: 200.0 micrograms/kg/injection, schedule: Q04DX004 (ip), vehicle: saline + alcohol); 124 % of control (dose: 200.0 micrograms/kg/injection, schedule: Q04DX004 (ip), vehicle: saline); 102 % of control (dose: 200.0 micrograms/kg/injection, schedule: Q04DX004 (iv), vehicle: saline); 106 % of control (dose: 200.0 micrograms/kg/injection, schedule: Q04DX004 (sc), vehicle: other). Moreover, the T/C reads like this: (dose: 400.0 micrograms/kg/injection, schedule: Q04DX004 (ip), vehicle: other) 152 % of control; (dose: 400.0 micrograms/kg/injection, schedule: Q04DX004 (ip), vehicle: saline + alcohol) 163 % of control and 184 % of control and 195 % of control; (dose: 400.0 micrograms/kg/injection, schedule: Q04DX004 (iv), vehicle: saline) 105 % of control; (dose: 400.0 micrograms/kg/injection, schedule: Q04DX004 (sc), vehicle: other) 106 % of control; (dose: 800.0 micrograms/kg/injection, schedule: Q04DX004 (ip), vehicle: saline + alcohol) 191 % of control and 217 % of control; (dose: 800.0 micrograms/kg/injection, schedule: Q04DX004 (ip), vehicle: saline) 152 % of control. Further, the T/C runs as follows: (dose: 800.0 micrograms/kg/injection, schedule: Q04DX004 (iv), vehicle: saline) 116 % of control; (dose: 800.0 micrograms/kg/injection, schedule: Q04DX004 (sc), vehicle: other) 119 % of control.
Turning to `N#Cc1ccc(NN=O)nc1`, the T/C runs as follows: (dose: 6.25 mg/kg/injection, schedule: Q04DX004 (ip), vehicle: water) 124 % of control; (dose: 6.5 mg/kg/injection, schedule: Q04DX004 (ip), vehicle: water) 116 % of control; (dose: 25.0 mg/kg/injection, schedule: Q04DX004 (ip), vehicle: water) 152 % of control; (dose: 50.0 mg/kg/injection, schedule: Q04DX004 (ip), vehicle: water) 160 % of control and 177 % of control; (dose: 83.0 mg/kg/injection, schedule: Q04DX004 (ip), vehicle: water) 182 % of control; (dose: 100.0 mg/kg/injection, schedule: Q04DX004 (ip), vehicle: water) 118 % of control. Besides, under “dose: 139.0 mg/kg/injection, schedule: Q04DX004 (ip), vehicle: water”, the T/C is 200 % of control.
As for `N=C(N)Sc1cc(O)ccc1O`, the T/C was 110 % of control (dose: 43.75 mg/kg/injection, schedule: Q04DX004 (ip), vehicle: saline with Tween-80); 109 % of control (dose: 87.5 mg/kg/injection, schedule: Q04DX004 (ip), vehicle: saline with Tween-80); 111 % of control (dose: 175.0 mg/kg/injection, schedule: Q04DX004 (ip), vehicle: saline with Tween-80); 110 % of control (dose: 350.0 mg/kg/injection, schedule: Q04DX004 (ip), vehicle: saline with Tween-80).
As for `CN(C)CCN1C(=O)c2cccc3cc(N)cc(c23)C1=O`, the T/C (dose: 12.96 mg/kg/injection, schedule: Q04DX004 (ip), vehicle: acid diluted with saline) was 108 % of control and 117 % of control; the T/C (dose: 21.6 mg/kg/injection, schedule: Q04DX004 (ip), vehicle: acid diluted with saline) is 159 % of control; the T/C (dose: 36.0 mg/kg/injection, schedule: Q04DX004 (ip), vehicle: acid diluted with saline) was 158 % of control.
Turning to `Cc1ccc(/C=C/C(=O)/C=C/c2ccc(C)o2)o1`, the T/C (dose: 50.0 mg/kg/injection, schedule: Q04DX004 (ip), vehicle: other) was 101 % of control; the T/C (dose: 100.0 mg/kg/injection, schedule: Q04DX004 (ip), vehicle: other) was 109 % of control; the T/C (dose: 200.0 mg/kg/injection, schedule: Q04DX004 (ip), vehicle: other) was 108 % of control; the T/C (dose: 400.0 mg/kg/injection, schedule: Q04DX004 (ip), vehicle: other) is 101 % of control; the T/C (dose: 800.0 mg/kg/injection, schedule: Q04DX004 (ip), vehicle: other) was 95 % of control.
In the case of `CCOC(=O)Nc1cc2c(c(N)n1)N=C(c1ccccc1)CO2`, the T/C runs as follows: under setting [1], 101 % of control; under setting [2], 107 % of control; under setting [3], 109 % of control; (dose: 400.0 mg/kg/injection, schedule: Q04DX004 (ip), vehicle: saline with Tween-80) 105 % of control.
For the molecule `CCCCCCCCCCCC1C(C#N)C(=O)NC(=O)C1C#N` (centres undefined), the T/C reads like this: (dose: 50.0 mg/kg/injection, schedule: Q04DX004 (ip), vehicle: Klucel + Tween-80) 104 % of control; (dose: 100.0 mg/kg/injection, schedule: Q04DX004 (ip), vehicle: Klucel + Tween-80) 93 % of control; (dose: 200.0 mg/kg/injection, schedule: Q04DX004 (ip), vehicle: Klucel + Tween-80) 96 % of control; (dose: 400.0 mg/kg/injection, schedule: Q04DX004 (ip), vehicle: Klucel + Tween-80) 93 % of control; (dose: 800.0 mg/kg/injection, schedule: Q04DX004 (ip), vehicle: Klucel + Tween-80) 93 % of control.
As to `Cn1c(-c2ccc(Br)cc2)cc2[nH]c(=S)nc(N)c2c1=O`, the T/C is, setting by setting: under setting [1], 96 % of control; under setting [2], 92 % of control; under setting [3], 87 % of control.
For the molecule `Nc1ncnc2c1c1c(=O)[nH]c(=O)[nH]c1n2C1OC(CO)C(O)C1O` (centres undefined), the T/C reads like this: (dose: 50.0 mg/kg/injection, schedule: Q04DX004 (ip), vehicle: distilled water + Tween-80) 106 % of control and 115 % of control; (dose: 100.0 mg/kg/injection, schedule: Q04DX004 (ip), vehicle: distilled water + Tween-80) 117 % of control; (dose: 200.0 mg/kg/injection, schedule: Q04DX004 (ip), vehicle: distilled water + Tween-80) 104 % of control and 108 % of control; (dose: 400.0 mg/kg/injection, schedule: Q04DX004 (ip), vehicle: distilled water + Tween-80) 116 % of control.
On to `O=C1N2CCNc3ccccc3C(c3ccccc3)N1CC2` (centres undefined), for which the T/C reads like this: (dose: 6.25 mg/kg/injection, schedule: Q04DX004 (ip), vehicle: Klucel (hydroxypropylcellulose) (HPC)) 117 % of control; (dose: 12.5 mg/kg/injection, schedule: Q04DX004 (ip), vehicle: Klucel (hydroxypropylcellulose) (HPC)) 103 % of control; (dose: 25.0 mg/kg/injection, schedule: Q04DX004 (ip), vehicle: Klucel (hydroxypropylcellulose) (HPC)) 106 % of control.
`c1cn[nH]c1`: the T/C by setting is: (dose: 25.0 mg/kg/injection, schedule: Q04DX004 (ip), vehicle: saline) 93 % of control and 100 % of control; (dose: 50.0 mg/kg/injection, schedule: Q04DX004 (ip), vehicle: saline) 97 % of control and 106 % of control and 107 % of control; (dose: 100.0 mg/kg/injection, schedule: Q04DX004 (ip), vehicle: saline) 103 % of control and 104 % of control and 107 % of control; (dose: 200.0 mg/kg/injection, schedule: Q04DX004 (ip), vehicle: saline) 105 % of control and 107 % of control and 110 % of control; (dose: 400.0 mg/kg/injection, schedule: Q04DX004 (ip), vehicle: saline) 116 % of control.

Source of the values: PubChem BioAssay AID292 (DTP/NCI, 2004).
